Activity calls are given as the source filed them. The rule behind the calls is not given here.
Key:
[1] = molecular target: Human immunodeficiency virus type 1 integrase (Human immunodeficiency virus 1, UniProt Q7ZJM1); assay: Inhibition of recombinant HIV1 integrase expressed in Escherichia coli
[2] = system: Human immunodeficiency virus 1; assay: Antiviral activity against HIV1 3B in MT4 cells at 200 uM; format: functional, organism-based
[3] = Human immunodeficiency virus 1, 3B

Human immunodeficiency virus type 1 integrase, sequence (Q7ZJM1 whole entry): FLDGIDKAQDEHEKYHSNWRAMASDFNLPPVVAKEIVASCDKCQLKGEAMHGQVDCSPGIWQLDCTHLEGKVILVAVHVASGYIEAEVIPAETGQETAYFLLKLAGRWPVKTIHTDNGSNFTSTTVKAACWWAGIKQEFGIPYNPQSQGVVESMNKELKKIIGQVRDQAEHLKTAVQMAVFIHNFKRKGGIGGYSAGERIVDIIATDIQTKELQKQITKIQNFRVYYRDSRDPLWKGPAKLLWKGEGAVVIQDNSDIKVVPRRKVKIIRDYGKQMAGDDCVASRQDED

SMILES	IC50 [1]	further results
O=C(/C=C/c1ccc(O)c(O)c1)NC(Cc1ccc(O)cc1)C(=O)O (centres undefined)	129 µM	–
O=C(/C=C/c1ccc(O)c(O)c1)NC(Cc1ccc(O)c(O)c1)C(=O)O (centres undefined)	12 µM	Activity [2]: inactive
COc1cc(/C=C/C(=O)OCC(=O)O)ccc1O	> 300 µM	–
O=C(/C=C/c1ccc(O)c(O)c1)O[C@H](C(=O)O)[C@@H](OC(=O)/C=C/c1ccc(O)c(O)c1)C(=O)O	–	CC50 [2, 3]: > 42.2 µM; EC50 [2, 3]: 7.5 µM
O=C(O)COC(=O)/C=C/c1ccc(O)c(O)c1	10.5 µM	–
O=C(O)CNC(=O)/C=C/c1ccc(O)c(O)c1	172 µM	–
COc1ccc(/C=C/C(=O)OCC(=O)O)cc1OC	> 300 µM	–
CC(OC(=O)/C=C/c1ccc(O)c(O)c1)C(=O)O (centres undefined)	128 µM	Activity [2]: inactive
O=C(/C=C/c1ccc(O)c(O)c1)NC(Cc1ccccc1)C(=O)O (centres undefined)	95 µM	–
CC(NC(=O)/C=C/c1ccc(O)c(O)c1)C(=O)O (centres undefined)	148 µM	–
CC(C)CC(NC(=O)/C=C/c1ccc(O)c(O)c1)C(=O)O (centres undefined)	130 µM	–

— ChEMBL document CHEMBL1147999, “Caffeoylglycolic and caffeoylamino acid derivatives, halfmers of L-chicoric acid, as new HIV-1 integrase inhibitors” (Eur J Med Chem, 2007)
